Results as given in the NIST ThermoML archive (doi:10.1016/j.jct.2012.07.007).
± gives the expanded uncertainty stated by the source.

Columns and labels:
[1] = xn = mol fraction of the nth substance listed; details: 101 kPa, Liquid; for speed of sound: Linear variable-path acoustic interferometer; for mass density: Vibrating tube method
[2] = excess molar enthalpy (molar enthalpy of mixing); xn = mol fraction of the nth substance listed; details: 298.15 K, 101 kPa, Liquid, 2-drop calorimetry

Cc1ccccn1 [2-methylpyridine] + CCn1cc[n+](C)c1.F[B-](F)(F)F
[1]
Details | mass density, 303.15 K [kg/m3] | mass density, 308.15 K [kg/m3] | speed of sound, 303.15 K [m/s] | speed of sound, 308.15 K [m/s]
x2 = 0.1219 | 1006.33 ± 0.86 | 1002.14 ± 0.85 | – | 1379.6 ± 2.5
x2 = 0.1776 | 1036.16 ± 0.92 | 1032.07 ± 0.91 | – | 1400 ± 2.5
x2 = 0.2341 | 1064.53 ± 0.98 | 1060.5 ± 0.97 | – | 1422 ± 2.5
x2 = 0.2778 | 1085.1 ± 1 | 1081.18 ± 1 | – | 1439.1 ± 2.5
x2 = 0.3209 | 1104.33 ± 1.1 | 1100.37 ± 1.1 | – | 1455.6 ± 2.5
x2 = 0.3721 | 1125.57 ± 1.1 | 1121.65 ± 1.1 | – | 1475.5 ± 2.5
x2 = 0.4232 | 1145.21 ± 1.1 | 1141.21 ± 1.1 | – | 1495 ± 2.5
x2 = 0.4727 | 1162.72 ± 1.2 | 1158.68 ± 1.2 | – | 1513.6 ± 2.5
x2 = 0.5217 | 1178.63 ± 1.2 | 1174.56 ± 1.2 | – | 1530.3 ± 2.5
x2 = 0.5742 | 1194.21 ± 1.3 | 1190.05 ± 1.2 | 1555.3 ± 2.6 | 1545.9 ± 2.5
x2 = 0.6217 | 1206.93 ± 1.3 | 1202.85 ± 1.3 | 1567.5 ± 2.6 | 1559 ± 2.6
x2 = 0.6724 | 1219.36 ± 1.3 | 1215.15 ± 1.3 | 1577.8 ± 2.6 | 1571.1 ± 2.6
x2 = 0.7228 | 1230.44 ± 1.3 | 1226.27 ± 1.3 | 1586.2 ± 2.6 | 1581.5 ± 2.6
x2 = 0.7725 | 1240.41 ± 1.4 | 1236.19 ± 1.4 | 1592.1 ± 2.6 | 1589 ± 2.6
x2 = 0.8216 | 1249.32 ± 1.4 | 1245.1 ± 1.4 | 1596.9 ± 2.6 | 1593.8 ± 2.6
x2 = 0.8741 | 1257.98 ± 1.4 | 1253.82 ± 1.4 | 1600.8 ± 2.6 | 1597.4 ± 2.6
x2 = 0.9218 | 1265.26 ± 1.4 | 1261.08 ± 1.4 | 1603.5 ± 2.6 | 1598.2 ± 2.6
x2 = 0.9319 | 1266.74 ± 1.4 | 1262.57 ± 1.4 | 1604 ± 2.6 | 1598.3 ± 2.6

[2]
Details | excess molar enthalpy [kcal/mol]
x2 = 0.1132 | -0.0261 ± 0.000645
x2 = 0.1578 | -0.0354 ± 0.000837
x2 = 0.2087 | -0.0464 ± 0.00105
x2 = 0.2467 | -0.0538 ± 0.00122
x2 = 0.2976 | -0.0636 ± 0.00141
x2 = 0.3245 | -0.0684 ± 0.00151
x2 = 0.3789 | -0.078 ± 0.00172
x2 = 0.4235 | -0.0852 ± 0.00186
x2 = 0.4876 | -0.0945 ± 0.00208
x2 = 0.5123 | -0.0976 ± 0.00213
x2 = 0.5734 | -0.104 ± 0.00227
x2 = 0.6145 | -0.107 ± 0.00234
x2 = 0.6634 | -0.108 ± 0.00237
x2 = 0.7145 | -0.104 ± 0.00227
x2 = 0.7856 | -0.0953 ± 0.00208
x2 = 0.8265 | -0.086 ± 0.00189
x2 = 0.8723 | -0.0727 ± 0.0016
x2 = 0.9226 | -0.05 ± 0.00112
